For 1 compound, Kd results are on record in paper PMC12287757, “Exploring the inhibitory effect and mechanism of 3,4,5-trihydroxybiphenyl on α-glucosidase: an integrated experimental and computational approach” (Frontiers in Pharmacology, 2025).

In the experiment the target is α-glucosidase. Briefly: SPR (Biacore 8K, CM5 chip, immobilized enzyme); also p-NPG inhibition (IC50 […], Ki […], non-competitive, reversible) and CD. The format is binding, Saccharomyces cerevisiae.

Broadly, the Kd is the constant that tells how readily two partners part at equilibrium. A higher Kd goes with a looser complex. `Oc1cc(-c2ccccc2)cc(O)c1O` [THB, 3,4,5-Trihydroxybiphenyl]: the affinity, expressed as Kd, was 39.1 µM.
